The test has as its target T1, human CRF2α receptor (Homo sapiens, UniProt Q13324).
T1 construct: expressed in transfected cells; host or cells: TeloHEAC
T1 sequence (Q13324 1-411): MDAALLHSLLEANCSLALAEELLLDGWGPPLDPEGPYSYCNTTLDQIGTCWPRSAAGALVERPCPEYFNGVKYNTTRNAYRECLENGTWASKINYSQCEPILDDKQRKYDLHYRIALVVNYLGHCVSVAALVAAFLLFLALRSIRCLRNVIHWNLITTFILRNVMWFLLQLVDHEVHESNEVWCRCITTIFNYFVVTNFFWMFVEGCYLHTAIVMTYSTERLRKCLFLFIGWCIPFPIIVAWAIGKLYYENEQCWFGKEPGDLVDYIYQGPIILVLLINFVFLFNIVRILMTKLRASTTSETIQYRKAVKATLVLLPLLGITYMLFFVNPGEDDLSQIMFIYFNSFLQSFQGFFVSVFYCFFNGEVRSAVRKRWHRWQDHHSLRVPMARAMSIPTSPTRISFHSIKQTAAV
Put plainly: cAMP agonism at human CRF2 α receptor in TeloHEAC cells (Example 7). Format: cell-based. Conditions: cAMP HTRF, TeloHEAC cells stably expressing human CRF2 α, 0% HSA; read-out: EC50 [nM], 0% HSA. As for the experimental part: Agonism of compounds for human corticotropin-releasing factor 2α (CRF2 α receptor) was determined by functional assays measuring CAMP response of a TeloHEAC cell line stably expressing human CRF2 α receptor.
Cells were grown in a T175 culture flask placed at 37° C. to near confluence in medium (DMEM/10% FBS) and collected in 2 ml vials in cell culture medium containing 10% DMSO in a concentration of 10-50 million cells/ml. Each vial contained 1.8 ml cells. The vials were slowly frozen to −80° C. in isopropanol and then transferred in liquid nitrogen for storage. Prior to use, frozen cells were thawed quickly at 37° C. and washed (5 min at 900 rpm) with 20 ml cell buffer (1×HBSS; 20 mM HEPES; 0% or 0.1% HSA). Cells were resuspended in assay buffer (cell buffer plus 2 mM IBMX) and adjusted to a cell density of 1 million cells/ml. For measurement, 5 μl cells (final […]) and 5 μL of test compound were added to a 384-well plate, followed by incubation for 30 minutes at room temperature.
The CAMP content of cells was determined using a kit from Cisbio Corp. (cat. no. 62AM4PEC) based on HTRF (Homogenous Time Resolved Fluorescence). After addition of HTRF reagents diluted in lysis buffer (kit components), the plates were incubated for 1 h, followed by measurement of the fluorescence ratio at 665/620 nm. The percent activity value (E %) was calculated by setting 1000 nM of urocortin 2 (UCN2) as 100%. The in vitro potency of the compounds was quantified by determining the concentrations that caused 50% activation of maximal response (EC50).
On the technique in general: TR-FRET usually uses a lanthanide donor and a delayed reading to cut background.

Starred links: 1 amine or outer side, 2 acyl side, 3 side chain; linkers in the order of their positions; H or OH if unused. Non-standard residues stand in square brackets, D forms with d. Residues, ends and D or L forms follow the SMILES beside them. Groups on a side chain read outwards from the residue. *: point of attachment. C18 diacid = O=C(O)CCCCCCCCCCCCCCCCC(=O)*; γGlu = O=C(O)[C@H](CCC(=O)[*:2])N[*:1]; AEEA = NCCOCCOCC(=O)O; Aib = CC(C)(N)C(=O)O

Usually EC50 stands for the concentration at which the effect is half-maximal. Regarding `CC[C@H](C)[C@H](N)C(=O)N[C@H](C(=O)N[C@@H](CC(C)C)C(=O)N[C@@H](CO)C(=O)N[C@@H](CC(C)C)C(=O)N[C@@H](CC(=O)O)C(=O)N[C@H](C(=O)N1CCC[C@H]1C(=O)N[C@H](C(=O)N[C@@H](CCCCN)C(=O)N[C@@H](CC(C)C)C(=O)N[C@@H](CCCCNC(=O)COCCOCCNC(=O)COCCOCCNC(=O)CC[C@H](NC(=O)CCCCCCCCCCCCCCCCC(=O)O)C(=O)O)C(=O)N[C@@H](CCC(N)=O)C(=O)N[C@H](C(=O)N[C@@H](CC(C)C)C(=O)N[C@@H](CC(C)C)C(=O)N[C@@H](CCC(=O)O)C(=O)N[C@@H](CCC(N)=O)C(=O)N[C@@H](CCC(=O)O)C(=O)N[C@@H](CCCNC(=N)N)C(=O)N[C@@H](CCC(N)=O)C(=O)N[C@@H](CCCNC(=N)N)C(=O)N[C@@H](CCCCN)C(=O)N[C@@H](CCC(=O)O)C(=O)N[C@@H](CCCNC(=N)N)C(=O)N[C@@H](CCC(N)=O)C(=O)N[C@@H](CCC(N)=O)C(=O)N[C@@H](C)C(=O)N[C@@H](CCC(=O)O)C(=O)N[C@H](C(=O)N[C@@H](CC(N)=O)C(=O)N[C@H](C(=O)N[C@@H](CCC(N)=O)C(=O)N[C@H](C(=O)N[C@@H](CC(C)C)C(=O)N[C@@H](C)C(=O)N[C@@H](CCC(N)=O)C(=O)N[C@H](C(N)=O)C(C)C)[C@@H](C)CC)C(C)C)[C@@H](C)O)[C@@H](C)CC)[C@@H](C)CC)C(C)C)C(C)C` [compound 40] (H-IVLSLDVPIKLK([AEEA-AEEA-γGlu-C18 diacid])QILLEQERQRKERQQAETNVQILAQV-NH2; N-terminus assumed), the concentration for a half-maximal effect (EC50) came out at 15.4 nM. The figure for `CC[C@H](C)[C@H](N)C(=O)N[C@H](C(=O)N[C@@H](CC(C)C)C(=O)N[C@@H](CO)C(=O)N[C@@H](CC(C)C)C(=O)N[C@@H](CC(=O)O)C(=O)N[C@H](C(=O)N1CCC[C@H]1C(=O)N[C@H](C(=O)N[C@@H](CCCCN)C(=O)N[C@@H](CC(C)C)C(=O)N[C@@H](CCCCNC(=O)COCCOCCNC(=O)COCCOCCNC(=O)CC[C@H](NC(=O)CCCCCCCCCCCCCCCCC(=O)O)C(=O)O)C(=O)N[C@@H](CCC(N)=O)C(=O)N[C@H](C(=O)N[C@@H](CC(C)C)C(=O)N[C@@H](CC(C)C)C(=O)N[C@@H](CCC(=O)O)C(=O)N[C@@H](CCC(N)=O)C(=O)N[C@@H](CCC(=O)O)C(=O)N[C@@H](CCCNC(=N)N)C(=O)N[C@@H](CCC(N)=O)C(=O)N[C@@H](CCCNC(=N)N)C(=O)N[C@@H](CCCCN)C(=O)N[C@@H](CCC(=O)O)C(=O)N[C@@H](CCCNC(=N)N)C(=O)N[C@@H](CCC(N)=O)C(=O)N[C@@H](CCC(N)=O)C(=O)N[C@@H](C)C(=O)N[C@@H](CCC(=O)O)C(=O)N[C@@H](CCCCN)C(=O)N[C@@H](CC(N)=O)C(=O)N[C@H](C(=O)N[C@@H](CCCNC(=N)N)C(=O)N[C@H](C(=O)N[C@@H](CC(C)C)C(=O)N[C@@H](CCC(=O)O)C(=O)N[C@@H](CCCNC(=N)N)C(=O)N[C@H](C(N)=O)C(C)C)[C@@H](C)CC)C(C)C)[C@@H](C)CC)[C@@H](C)CC)C(C)C)C(C)C` [compound 41] (H-IVLSLDVPIKLK([AEEA-AEEA-γGlu-C18 diacid])QILLEQERQRKERQQAEKNVRILERV-NH2; N-terminus assumed) is 15.6 nM; for `CC[C@H](C)[C@H](N)C(=O)N[C@H](C(=O)N[C@@H](CC(C)C)C(=O)N[C@@H](CO)C(=O)N[C@@H](CC(C)C)C(=O)N[C@@H](CC(=O)O)C(=O)N[C@H](C(=O)N1CCC[C@H]1C(=O)N[C@H](C(=O)N[C@@H](CCCCN)C(=O)N[C@@H](CC(C)C)C(=O)N[C@@H](CCCCNC(=O)COCCOCCNC(=O)COCCOCCNC(=O)CC[C@H](NC(=O)CCCCCCCCCCCCCCCCC(=O)O)C(=O)O)C(=O)N[C@@H](CCC(N)=O)C(=O)N[C@H](C(=O)N[C@@H](CC(C)C)C(=O)N[C@@H](CC(C)C)C(=O)N[C@@H](CCC(=O)O)C(=O)N[C@@H](CCC(N)=O)C(=O)N[C@@H](CCC(=O)O)C(=O)N[C@@H](CCCNC(=N)N)C(=O)N[C@@H](CCC(N)=O)C(=O)N[C@@H](CCCNC(=N)N)C(=O)NC(C)(C)C(=O)N[C@@H](CCC(=O)O)C(=O)N[C@@H](CCCNC(=N)N)C(=O)N[C@@H](CCC(N)=O)C(=O)N[C@@H](CCC(N)=O)C(=O)N[C@@H](C)C(=O)N[C@@H](CCC(=O)O)C(=O)N[C@@H](CCCCN)C(=O)N[C@@H](CC(N)=O)C(=O)N[C@H](C(=O)N[C@@H](CCCNC(=N)N)C(=O)N[C@H](C(=O)N[C@@H](CC(C)C)C(=O)N[C@@H](CCC(=O)O)C(=O)N[C@@H](CCCNC(=N)N)C(=O)N[C@H](C(N)=O)C(C)C)[C@@H](C)CC)C(C)C)[C@@H](C)CC)[C@@H](C)CC)C(C)C)C(C)C` [compound 42] (H-IVLSLDVPIKLK([AEEA-AEEA-γGlu-C18 diacid])QILLEQERQR[Aib]ERQQAEKNVRILERV-NH2) it is 15.4 nM; for `CC[C@H](C)[C@H](N)C(=O)N[C@H](C(=O)N[C@@H](CC(C)C)C(=O)N[C@@H](CO)C(=O)N[C@@H](CC(C)C)C(=O)N[C@@H](CC(=O)O)C(=O)N[C@H](C(=O)N1CCC[C@H]1C(=O)N[C@H](C(=O)N[C@@H](CCCCN)C(=O)N[C@@H](CC(C)C)C(=O)N[C@@H](CCCCNC(=O)COCCOCCNC(=O)COCCOCCNC(=O)CC[C@H](NC(=O)CCCCCCCCCCCCCCCCC(=O)O)C(=O)O)C(=O)N[C@@H](CCC(N)=O)C(=O)N[C@H](C(=O)N[C@@H](CC(C)C)C(=O)N[C@@H](CC(C)C)C(=O)N[C@@H](CCC(=O)O)C(=O)N[C@@H](CCC(N)=O)C(=O)N[C@@H](C)C(=O)N[C@@H](CCCCN)C(=O)N[C@@H](CCC(N)=O)C(=O)N[C@@H](CCCCN)C(=O)N[C@@H](CCCCN)C(=O)N[C@@H](CCC(=O)O)C(=O)N[C@@H](CCCNC(=N)N)C(=O)N[C@@H](C)C(=O)N[C@@H](CCC(N)=O)C(=O)N[C@@H](C)C(=O)N[C@@H](CCC(=O)O)C(=O)N[C@H](C(=O)N[C@@H](CC(N)=O)C(=O)N[C@H](C(=O)N[C@@H](CCCNC(=N)N)C(=O)N[C@H](C(=O)N[C@@H](CC(C)C)C(=O)N[C@@H](CCC(=O)O)C(=O)N[C@@H](CCCNC(=N)N)C(=O)N[C@H](C(N)=O)C(C)C)[C@@H](C)CC)C(C)C)[C@@H](C)O)[C@@H](C)CC)[C@@H](C)CC)C(C)C)C(C)C` [compound 44] (H-IVLSLDVPIKLK([AEEA-AEEA-γGlu-C18 diacid])QILLEQAKQKKERAQAETNVRILERV-NH2) it is 13.7 nM. Turning to `CC[C@H](C)[C@H](N)C(=O)N[C@H](C(=O)N[C@@H](CC(C)C)C(=O)N[C@@H](CO)C(=O)N[C@@H](CC(C)C)C(=O)N[C@@H](CC(=O)O)C(=O)N[C@H](C(=O)N1CCC[C@H]1C(=O)N[C@H](C(=O)N[C@@H](CCCCN)C(=O)N[C@@H](CC(C)C)C(=O)N[C@@H](CCCCNC(=O)COCCOCCNC(=O)COCCOCCNC(=O)CC[C@H](NC(=O)CCCCCCCCCCCCCCCCC(=O)O)C(=O)O)C(=O)N[C@@H](CCC(N)=O)C(=O)N[C@H](C(=O)N[C@@H](CC(C)C)C(=O)N[C@@H](CC(C)C)C(=O)N[C@@H](CCC(=O)O)C(=O)N[C@@H](CCC(N)=O)C(=O)N[C@@H](CCC(=O)O)C(=O)N[C@@H](CCCNC(=N)N)C(=O)N[C@@H](CCC(N)=O)C(=O)N[C@@H](CCCNC(=N)N)C(=O)NC(C)(C)C(=O)N[C@@H](CCC(=O)O)C(=O)N[C@@H](CCCNC(=N)N)C(=O)N[C@@H](CCC(N)=O)C(=O)N[C@@H](CCC(N)=O)C(=O)N[C@@H](C)C(=O)N[C@@H](CCC(=O)O)C(=O)N[C@H](C(=O)N[C@@H](CC(N)=O)C(=O)N[C@H](C(=O)N[C@@H](CCC(N)=O)C(=O)N[C@H](C(=O)N[C@@H](CC(C)C)C(=O)N[C@@H](C)C(=O)N[C@@H](CCC(N)=O)C(=O)N[C@H](C(N)=O)C(C)C)[C@@H](C)CC)C(C)C)[C@@H](C)O)[C@@H](C)CC)[C@@H](C)CC)C(C)C)C(C)C` [compound 48] (H-IVLSLDVPIKLK([AEEA-AEEA-γGlu-C18 diacid])QILLEQERQR[Aib]ERQQAETNVQILAQV-NH2; N-terminus assumed), the 50% effective concentration (EC50) is 2.2 nM.
